Laboratory results as given in patent publication US6703205B2, “Apparatus and methods for correcting for variable velocity in microfluidic systems” (Caliper Technologies Corp., priority 1997, dated 2004).

How the values were obtained:
HCV protease = HCV protease (Hepatitis C virus genotype 1a, UniProt P27958); assay: On-chip continuous flow HCV protease assay with FRET depsipeptide substrate; type: biochemical; conditions: 25 mM TRIS/HCL, pH 8.5, 0.1% Triton X-100, 10 mM DTT, 1M NDSB-195
From the text: HCV protease was used in a similar fluorogenic assay to LAR phosphatase; however, the peptide substrate incorporates a fluorescence resonance energy transfer (FRET) label (FIG. 18). […] The product fluorescence is proportional to the amount of cleaved substrate. The height of the product signal is proportional to the rate of enzyme turnover for that substrate concentration. The rate of fluorescence generation can be assessed as the fluorescence signal per mixing time of substrate and enzyme in the reaction channel. That mixing time is determined by the mean residence time of the fluorescent product in the reaction channel as it is electrokinetically pumped from the source of the mixing to the detector. Km was determined from the Michaelis Menton equation.
Due to the chemistry of this FRET quenching reaction, several considerations for accurate measurement of Km on the Labchip™ exist. […]
The chip was operational in that fluid was flowing for more than 12 hours of continuous electrokinetic pumping; however, the inhibition response was reproducible for seven hours. The total reagent volume consumed in the experiment can be calculated from the cross sectional area of the capillary and the total current. […] The average percent inhibition response was calculated for the first three inhibited and uninhibited signals at the start of each hour. […]

LAR = LAR (Homo sapiens, UniProt P10586); assay: Cuvette / spectrophotometer LAR phosphatase assay with dFMUP; type: biochemical; conditions: same running buffer
LAR, sequence (P10586 30-1907, species assumed): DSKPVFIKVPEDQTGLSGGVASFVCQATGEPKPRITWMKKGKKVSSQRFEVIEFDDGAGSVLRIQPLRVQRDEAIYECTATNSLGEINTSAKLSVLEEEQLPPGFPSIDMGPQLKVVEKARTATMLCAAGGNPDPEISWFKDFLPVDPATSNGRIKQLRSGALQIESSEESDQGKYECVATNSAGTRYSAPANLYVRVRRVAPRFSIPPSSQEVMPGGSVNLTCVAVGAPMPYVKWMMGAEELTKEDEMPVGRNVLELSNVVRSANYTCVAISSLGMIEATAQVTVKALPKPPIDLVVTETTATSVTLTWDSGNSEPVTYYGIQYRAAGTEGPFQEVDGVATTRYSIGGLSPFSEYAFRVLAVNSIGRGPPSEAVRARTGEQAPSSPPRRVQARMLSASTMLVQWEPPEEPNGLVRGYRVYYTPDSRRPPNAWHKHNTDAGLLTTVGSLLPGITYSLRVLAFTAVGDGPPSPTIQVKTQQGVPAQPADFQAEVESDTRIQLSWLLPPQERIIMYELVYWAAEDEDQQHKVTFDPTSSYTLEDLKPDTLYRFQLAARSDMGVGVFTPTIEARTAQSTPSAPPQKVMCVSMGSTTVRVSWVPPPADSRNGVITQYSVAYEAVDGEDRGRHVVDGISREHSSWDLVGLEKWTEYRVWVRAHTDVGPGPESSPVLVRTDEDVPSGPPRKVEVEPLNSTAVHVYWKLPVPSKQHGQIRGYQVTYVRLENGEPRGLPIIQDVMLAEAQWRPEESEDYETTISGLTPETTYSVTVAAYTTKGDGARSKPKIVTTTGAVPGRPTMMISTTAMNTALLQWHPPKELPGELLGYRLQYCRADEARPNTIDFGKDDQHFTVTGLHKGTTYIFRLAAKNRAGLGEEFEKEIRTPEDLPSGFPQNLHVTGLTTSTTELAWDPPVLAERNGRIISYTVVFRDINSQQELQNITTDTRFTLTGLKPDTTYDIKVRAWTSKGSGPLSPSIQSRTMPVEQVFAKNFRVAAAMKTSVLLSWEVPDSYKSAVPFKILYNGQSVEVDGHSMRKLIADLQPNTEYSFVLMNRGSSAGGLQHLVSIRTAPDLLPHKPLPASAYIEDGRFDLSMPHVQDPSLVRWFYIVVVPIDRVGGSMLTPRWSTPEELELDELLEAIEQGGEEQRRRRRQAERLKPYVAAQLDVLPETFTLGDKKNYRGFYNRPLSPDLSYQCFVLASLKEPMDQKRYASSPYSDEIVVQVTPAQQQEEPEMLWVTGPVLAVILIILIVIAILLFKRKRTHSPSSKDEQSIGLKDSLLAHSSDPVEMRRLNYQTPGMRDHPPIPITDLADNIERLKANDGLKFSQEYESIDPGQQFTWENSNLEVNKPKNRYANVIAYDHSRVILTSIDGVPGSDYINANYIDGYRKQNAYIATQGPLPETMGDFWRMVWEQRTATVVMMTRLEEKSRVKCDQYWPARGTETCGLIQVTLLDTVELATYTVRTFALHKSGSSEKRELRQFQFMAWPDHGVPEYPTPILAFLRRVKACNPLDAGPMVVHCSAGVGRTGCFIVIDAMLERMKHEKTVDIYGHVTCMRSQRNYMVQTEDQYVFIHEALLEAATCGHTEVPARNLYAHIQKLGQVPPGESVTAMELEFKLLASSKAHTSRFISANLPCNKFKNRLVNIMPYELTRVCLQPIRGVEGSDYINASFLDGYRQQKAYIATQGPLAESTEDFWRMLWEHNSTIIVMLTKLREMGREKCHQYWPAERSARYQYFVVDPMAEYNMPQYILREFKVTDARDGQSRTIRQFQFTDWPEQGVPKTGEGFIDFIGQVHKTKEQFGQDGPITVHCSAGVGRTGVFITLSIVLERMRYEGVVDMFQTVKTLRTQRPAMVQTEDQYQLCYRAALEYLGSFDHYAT
Protocol: A least squares fit of the three straight lines: no inhibitor, 35 μM and 69 μM peptide, was performed with the constraint that they meet at a common intercept on the y axis, 1/Vmax FIG. 15. […] The kcat is 4.74 μmol/min nmol LAR. The parallel analysis performed on the spectrophotometer in the same running buffer yielded a kcat of 6 μmol/min nmol LAR. […] The same analysis performed in a cuvette experiment with 1 mg/ml BSA in the running buffer gave 167 μM peptide.
In addition to the above kinetic studies, rate as a function of substrate concentration data was collected on three separate chips in order to consider interchip reproducibility for Km analyses. The combined data were used to prepare a double reciprocal plot. […] This is in excellent agreement with cuvette experiments performed on the spectrophotometer where dFMU was detected at 360 nm in a temperature controlled cuvette at 25_C.

HCV protease, sequence (P27958 1027-1208): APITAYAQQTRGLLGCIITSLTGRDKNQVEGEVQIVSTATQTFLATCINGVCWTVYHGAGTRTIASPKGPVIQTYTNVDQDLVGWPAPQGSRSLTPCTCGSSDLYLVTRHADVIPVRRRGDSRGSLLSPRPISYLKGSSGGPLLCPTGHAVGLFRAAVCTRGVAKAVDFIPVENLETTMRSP

Row | SMILES | Vmax (HCV protease) [mM/s] | kcat (HCV protease) [s⁻¹] | kcat (LAR) [μmol/min nmolLAR]
1 | C/C=C1\NC(=O)[C@H]2CSSCC/C=C/[C@H](CC(=O)N[C@H](C(C)C)C(=O)N2)OC(=O)[C@H](C(C)C)NC1=O [Depsipeptide] | 0.086 | 0.03 | –
2 | Cc1cc(=O)oc2c(F)c(OP(=O)(O)O)c(F)cc12 [dFMUP] | – | – | 6
